{"source": "patent US7259250B2", "about": "“C-nitroso compounds and use thereof” (Duke University, priority 2000, dated 2007)", "key": {"[1]": {"settings": "cited from earlier work"}, "[2]": {"tested_on": "rabbit aortic ring (smooth muscle)", "assay": "Relaxation of rabbit aortic ring (Example II, tension tracings FIGS. 1-10)", "assay_type": "cell-based", "protocol": "The ability of various C-nitroso compounds as described below to relax a rabbit aortic ring (smooth muscle) was carried out as described in Stamler, J., et al., PNAS, Vol. 89, 444-448 (1992).\nResults shown in FIGS. 1-10 which are tracings of force (tension) in the Y-direction versus time in the X-direction with downward direction indicating relaxation and upward direction indicating constriction. Concentrations of C-nitroso compound applied at time in the X-direction are indicated as 10^−9 (1 nanomolar), 10^−6 (1 micromolar), 10^−3 (1 milimolar), etc. “PE” on the figures means the application of phenylephrine, a constricting agent."}, "[3]": {"assay": "Water solubility (dissolves in water at least to 1 micromolar)", "assay_type": "physicochemical", "settings": "water-soluble = dissolves in water at least to 1 micromolar", "from_the_text": "As used herein, the term “water-soluble” means dissolves in water at least to provide a concentration of 1 micromolar."}, "[4]": {"tested_on": "person with angina", "assay": "Example IV: patient case, angina with nitrate tolerance", "assay_type": "in vivo, human"}, "[5]": {"tested_on": "person with arthritis, esophageal spasm, coronary artery disease, congestive heart failure, impotence and nightly urinary incontinence", "assay": "Example III: patient case, ibuprofen partly given as nitrosoketoibuprofen", "assay_type": "in vivo, human"}, "[6]": {"settings": "compound alone, at micromolar concentration(s)"}}}
{"molecule": "CC(C)C(=O)c1ccc(C(C)C(=O)O)cc1", "note": "(centres unmarked) [2-(4′-isobutyrylphenyl)propionic acid]", "values": [{"measurement": "carbon acid pKa", "setting": "[1]; of the named substance itself", "value": "about 20"}]}
{"molecule": "CC(C)(C)N=O", "note": "[2-methyl-2-nitrosopropane]", "values": [{"measurement": "relaxation activity (in words)", "setting": "[2]; compound alone, at any of the concentrations used, FIG. 10", "value": "no relaxation effect activity"}, {"measurement": "water solubility (in words)", "setting": "[3]", "value": "not water soluble"}]}
{"molecule": "CCC(N=O)(C(C)=O)C(C)=O", "note": "[3-ethyl-3-nitroso-2,4-pentanedione]", "values": [{"measurement": "water solubility (in words)", "setting": "[3]", "value": "do not meet the definition of water solubility"}]}
{"molecule": "CC(=O)C(C)(N=O)C(C)=O", "note": "[3-methyl-3-nitroso-2,4-petanedione, 3-methyl-3-nitroso-2,4-pentanedione]", "values": [{"measurement": "concentration at which relaxation effect is displayed", "setting": "[2]; compound alone", "value": "greater than 10 micromolar"}, {"measurement": "concentration at which further relaxation effect is displayed", "setting": "[2]; compound alone, FIG. 9", "value": "greater than 100 micromolar"}, {"measurement": "water solubility (in words)", "setting": "[3]", "value": "not water soluble"}, {"measurement": "water solubility (in words)", "setting": "[3]; listed as 3-methyl-3-nitroso-2,4-pentanedione", "value": "do not meet the definition of water solubility"}, {"measurement": "pKa of the carbon acid from which the C-nitroso compound is obtained", "setting": "[1]; pKa of the parent carbon acid, not of the C-nitroso compound", "value": "less than 10"}]}
{"molecule": "O=Nc1ccccc1", "note": "[C-nitrosobenzene]", "values": [{"measurement": "relaxation activity (in words)", "setting": "[2]; [6]", "value": "no activity"}]}
{"molecule": "CC(C)(N=O)C(=O)CCC(=O)Oc1ccccc1C(=O)O", "note": "[Compound (129a)]", "values": [{"measurement": "concentration at which relaxation effect is shown", "setting": "[2]; compound alone, FIG. 1", "value": 10, "unit": "µM"}]}
{"molecule": "CC(=O)C1(C)CCC2CCCC[C@@H]2ON1O", "note": "(some centres unmarked) [Compound (135a)]", "values": [{"measurement": "outcome of angina", "setting": "[4]; 20 μg/min continuously, after nitroglycerin stopped", "value": "relief of angina"}]}
{"molecule": "CC(C)Cc1ccc(C(C)C(=O)O)cc1", "note": "(centres unmarked) [ibuprofen]", "values": [{"measurement": "adverse effect", "setting": "[5]; ibuprofen 400 mg, three times a day", "value": "gastrointestinal upset"}]}
{"molecule": "O=[N+]([O-])OCC(CO[N+](=O)[O-])O[N+](=O)[O-]", "note": "[nitroglycerin]", "values": [{"measurement": "tolerance development", "setting": "[4]; angina treated with nitroglycerin", "value": "nitrate tolerance"}]}
{"molecule": "CC(C(=O)O)c1ccc(C(=O)C(C)(C)[N+]([O-])=[N+]([O-])C(C)(C)C(=O)c2ccc(C(C)C(=O)O)cc2)cc1", "note": "(stereo not drawn) [nitrosoketoibuprofen, dimeric 2-[4′-(α-nitroso)isobutyrylphenyl]propionic acid]", "values": [{"measurement": "concentration at which relaxation effect is displayed", "setting": "[2]; compound alone, FIGS. 5 and 6", "value": 10, "unit": "nM"}, {"measurement": "relaxation activity (in words)", "setting": "[2]; compound alone, at concentration higher than 10 nanomolar, FIG. 6", "value": "not much more activity"}, {"measurement": "relaxation activity (in words)", "setting": "[2]; in conjunction with 100 μM glutathione, FIG. 7", "value": "no activity"}, {"measurement": "activity (in words)", "setting": "[2]; without glutathione, at nanomolar concentrations", "value": "therapeutically active"}, {"measurement": "outcome of symptoms", "setting": "[5]; ibuprofen 400 mg three times a day with 0.1% by weight of the drug as the dimeric nitrosoketoibuprofen", "value": "all symptoms are relieved"}]}
{"molecule": "C-nitrosophenol", "values": [{"measurement": "relaxation activity (in words)", "setting": "[2]; [6]", "value": "no activity"}]}
